Each structure is given as a SMILES string. A value given as a limit tells only on which side of the number the result lay.

The target in the first test is GST-Syk Full Protein (human) (Homo sapiens, UniProt P43405). In words: Syk kinase inhibition test (HTRF method). The note with it: HTRF, 100 μM ATP, 30 min room temperature, average; read-out: sykHTRF ave IC50. In kind it is biochemical. The procedure: Syk Kinase Inhibition Test (HTRF Method)
After the compounds were serially diluted with dimethylsulfoxide (DMSO), 10 μL of those 10-fold diluted with kinase buffer (20 mM HEPES pH 7.0, 10 mM MgCl2, 50 mM NaCl, 1 mM 2-ME, 0.05% BSA) was added to opti-plate HTRF-96 (Packard) (final DMSO concentration: 2%). 20 μL of a substrate solution (kinase buffer as mentioned above containing Syk Specific-Peptide Substrate Biot-EDPDYEWPSA-NH2 (Peptide Laboratory) 625 nM, 250 μM ATP (SIGMA) was added (final substrate concentration 250 nM, 100 μM ATP), and further 20 μL of an enzyme solution (kinase buffer as mentioned above containing GST-Syk Full Protein (human) 16 nM) (final concentration 6.4 nM) was added and the mixture was immediately stirred with a plate shaker to start enzyme reaction. After reacted at room temperature (20 to 25° C.) for 30 minutes, the enzyme reaction was terminated by adding 100 μL/well of a buffer for terminating and detecting the reaction (30 mM HEPES pH 7.0, 150 mM KF, 0.15% BSA, 0.075% Tween-20, 75 mM EDTA) containing HTRF reagent (5 μg/ml XL665-Streptavidin (CIS bio), 170 ng/ml Eu(K)-anti-PhosphoTyrosin, PT-66 (CIS bio)) (final concentration 20 mM HEPES pH 7.0, 100 mM KF, 0.1% BSA, 0.05% Tween-20, 50 mM EDTA). After allowed to stand still at room temperature for 1 hour, inhibitory effect of a compound against Syk kinase enzymatic activity was evaluated by measuring 665/620 fluorescence ratio to excitation light at 337 nm by ARVO (Wallac).
With `Cc1ccnc(Nc2cccc(-c3cnc(N4CCC(C(C)(C)C(=O)O)CC4)s3)n2)c1` [Compound A-18, 2-methyl-2-(1-{5-[6-(4-methylpyridin-2-ylamino)pyridin-2-yl]thiazol-2-yl}piperidin-4-yl)propionic acid], the IC50 was below 100 nM.
On to `Cc1ccnc(Nc2cccc(-c3cnc([C@@H](N)CCCCN)s3)n2)c1` [Compound A-63], for which the half-inhibitory concentration (IC50) fell in the range of 100 to 1000 nM.
On the same count and under the same terms, in the case of `Cc1ccnc(Nc2cccc(-c3cnc([C@H](Cc4ccc(OCc5ccccc5)cc4)NC(=O)OC(C)(C)C)s3)n2)c1` [Compound A-85] it was above 1000 nM; in that of `Cc1ccnc(Nc2cccc(-c3cnc([C@H](CCC(=O)OCc4ccccc4)NC(=O)OC(C)(C)C)s3)n2)c1` [Compound A-96], above 1000 nM.
The same measure, in the same setting: in the case of `CCOC(=O)c1nc([C@H](C)NC(=O)OC(C)(C)C)sc1-c1cccc(Nc2cc(C)ccn2)n1` [Compound A-100] it was above 1000 nM; in that of `CC(=O)N[C@@H](C)c1nc(C(=O)O)c(-c2cccc(Nc3cc(C)ccn3)n2)s1` [Compound A-109], above 1000 nM.
Still for that read-out and setting: in the case of `CNC(=O)c1nc([C@H](C)NC(C)=O)sc1-c1cccc(Nc2cc(C)ccn2)n1` [Compound A-118] it was above 1000 nM.
As for `CON(C)C(=O)c1nc([C@H](C)NC(C)=O)sc1-c1cccc(Nc2cc(C)ccn2)n1` [Compound A-125], the IC50 was above 1000 nM.
Consider `Cc1ccnc(Nc2cccc(-c3cnc(CCc4ccc(OCc5ccccc5)cc4)s3)n2)c1` [Compound A-133], for which the IC50 is above 1000 nM.
On to `COC(=O)c1ccc(CCc2ncc(-c3cccc(Nc4cc(C)ccn4)n3)s2)cc1` [Compound A-149], for which the IC50 was above 1000 nM.
The same measure, in the same setting: to `Cc1ccnc(Nc2cccc(-c3cnc(CCc4cccc(C(=O)N5CCC(O)CC5)c4)s3)n2)c1` [Compound A-281] belongs 100 to 1000 nM.
Take `Cc1cccnc1Nc1cccc(-c2cnc([C@H](C)O)s2)n1` [Compound A-327]: the IC50 is above 1000 nM.
For `CCOC(=O)Cc1ccnc(Nc2cccc(-c3cnc([C@H](C)NC(C)=O)s3)n2)c1` [Compound A-329], the IC50 lay in the range of 100 to 1000 nM.

Staying with this test, now noted: Tables 1-x, compounds A; read-out: sykHTRF ave IC50.
For the compound `Cc1ccnc(Nc2cccc(-c3cnc([C@@H](N)Cc4ccc(O)cc4)s3)n2)c1` [Compound A-389], the IC50 fell in the range of 100 to 1000 nM.
As for `Cc1ccnc(Nc2cccc(-c3cnc(N4CCNCC4)s3)n2)c1` [Compound A-406], the IC50 was in the range of 100 to 1000 nM.
Turning to `CCOC(=O)N1CCC(N(C)c2ncc(-c3cccc(Nc4cc(C)ccn4)n3)s2)CC1` [Compound A-445], the IC50 lay within 100 to 1000 nM.
For the compound `Cc1ccnc(Nc2cccc(-c3cnc(N(C)C4CCC(C(=O)N(C)C)CC4)s3)n2)c1` (centres unmarked) [Compound A-447], the concentration for half-maximal inhibition (IC50) was 100 to 1000 nM.
Regarding `Cc1ccnc(Nc2cccc(-c3cnc(N4CCC(C(=O)N(C)CCO)CC4)s3)n2)c1` [Compound A-448], the IC50 lay in the range of 100 to 1000 nM.
The same measure, in the same setting: in the case of `Cc1ccnc(Nc2cccc(-c3cnc(N4CCC(C(=O)N(CCO)CCO)CC4)s3)n2)c1` [Compound A-449] it was 100 to 1000 nM; in that of `COCCN(C)C(=O)C1CCN(c2ncc(-c3cccc(Nc4cc(C)ccn4)n3)s2)CC1` [Compound A-451], 100 to 1000 nM.
For `Cc1ccnc(Nc2cccc(-c3cnc(N4CCC(C(=O)N5CCNC(=O)C5)CC4)s3)n2)c1` [Compound A-453, 4-(1-{5-[6-(4-methylpyridin-2-ylamino)pyridin-2-yl]thiazol-2-yl}piperidine-4-carbonyl)piperazin-2-one], the half-maximal inhibitory concentration (IC50) was below 100 nM.
In the case of `Cc1ccnc(Nc2cccc(-c3cnc(N4CCC(C(=O)N5CCOCC5)CC4)s3)n2)c1` [Compound A-454], the half-inhibitory concentration (IC50) was 100 to 1000 nM.
For `Cc1ccnc(Nc2cccc(-c3cnc(N4CCC(C(=O)NC(C)(C)CO)CC4)s3)n2)c1` [Compound A-455], the IC50 was in the range of 100 to 1000 nM.
On the same count and under the same terms, to `Cc1ccnc(Nc2cccc(-c3cnc(N4CCC(C5=NC(C)(C)CO5)CC4)s3)n2)c1` [Compound A-456] belongs 100 to 1000 nM; to `Cc1ccnc(Nc2cccc(-c3cnc(N(C)Cc4ccc(OCc5ccccc5)cc4)s3)n2)c1` [Compound A-462], 100 to 1000 nM; to `Cc1ccnc(Nc2cccc(-c3cnc(N4CCN(CC(=O)OC(C)(C)C)C(=O)C4)s3)n2)c1` [Compound A-463], 100 to 1000 nM.
Consider `Cc1ccnc(Nc2cccc(-c3cnc(N4CCN(CC(=O)N(C)C)C(=O)C4)s3)n2)c1` [Compound A-467], for which the IC50 lay within 100 to 1000 nM.
`Cc1ccnc(Nc2cccc(-c3cnc(N4CCN(CC(=O)NCCO)C(=O)C4)s3)n2)c1` [Compound A-468, N-(2-hydroxyethyl)-2-(4-{5-[6-(4-methylpyridin-2-ylamino)pyridin-2-yl]thiazol-2-yl}-2-oxopiperazin-1-yl)acetamide]: the IC50 is below 100 nM.
On to `COCC1CCCN(c2ncc(-c3cccc(Nc4cc(C)ccn4)n3)s2)C1` (centres unmarked) [Compound A-481, N-{6-[2-(3-methoxymethylpiperidin-1-yl)thiazol-5-yl]pyridin-2-yl}-N-(4-methylpyridin-2-yl)amine], for which the IC50 was below 100 nM.
Turning to `Cc1ccnc(Nc2cccc(-c3cnc(N4CCC(NS(C)(=O)=O)CC4)s3)n2)c1` [Compound A-484, N-(1-{5-[6-(4-methylpyridin-2-ylamino)pyridin-2-yl]thiazol-2-yl}piperidin-4-yl)methanesulfonamide], the concentration for half-maximal inhibition (IC50) was below 100 nM.
Regarding `Cc1ccnc(Nc2cccc(-c3cnc(N4CCC(N(C)S(C)(=O)=O)CC4)s3)n2)c1` [Compound A-485, N-methyl-N-(1-{5-[6-(4-methylpyridin-2-ylamino)pyridin-2-yl]thiazol-2-yl}piperidin-4-yl)methanesulfonamide], the half-inhibitory concentration (IC50) is below 100 nM.
As to `CNC(=O)C(C)(C)NC(=O)C1CCN(c2ncc(-c3cccc(Nc4cc(C)ccn4)n3)s2)CC1` [Compound A-491], the IC50 is 100 to 1000 nM.
Still for that read-out and setting: to `CNC(=O)C1CCC(N(C)c2ncc(-c3cccc(Nc4cc(C)ccn4)n3)s2)CC1` (centres unmarked) [Compound A-492, N-methyl-4-(N′-methyl-N′-{5-[6-(4-methylpyridin-2-ylamino)pyridin-2-yl]thiazol-2-yl}amino)cyclohexanecarboxamide] belongs below 100 nM; to `Cc1ccnc(Nc2cccc(-c3cnc(N(C)C4CCC(C(=O)NCCO)CC4)s3)n2)c1` (centres unmarked) [Compound A-493, N-(2-hydroxyethyl)-4(N′-methyl-N′-{5-[6-(4-methylpyridin-2-ylamino)pyridin-2-yl]thiazol-2-yl}amino)cyclohexanecarboxamide], below 100 nM.
In the case of `CC(=O)NCCNC(=O)C1CCC(N(C)c2ncc(-c3cccc(Nc4cc(C)ccn4)n3)s2)CC1` (centres unmarked) [Compound A-494, N-(2-acetylaminoethyl)-4-(N′-methyl-N′-{5-[6-(4-methylpyridin-2-ylamino)pyridin-2-yl]thiazol-2-yl}amino)cyclohexanecarboxamide], the IC50 was below 100 nM.
Still for that read-out and setting: to `Cc1ccnc(Nc2cccc(-c3cnc(N(C)C4CCC(C(=O)N5CCC(O)CC5)CC4)s3)n2)c1` (centres unmarked) [Compound A-495] belongs 100 to 1000 nM; to `Cc1ccnc(Nc2cccc(-c3cnc(N(C)C4CCC(C(=O)N[C@H]5CC[C@H](O)CC5)CC4)s3)n2)c1` (some centres unmarked) [Compound A-496], 100 to 1000 nM; to `C=CCN(CC=C)c1ncc(-c2cccc(Nc3cc(C)ccn3)n2)s1` [Compound A-507, N,N-diallyl-N-{5-[6-(4-methylpyridin-2-ylamino)pyridin-2-yl]thiazol-2-yl}amine], below 100 nM.

For the origin of these results see patent US7803801B2, “Aminopyridine compounds having Syk inhibitory activity” (Japan Tobacco, Inc., priority 2005, dated 2010).
